Assay results taken from paper PMC4175002, “The Design and Synthesis of Potent and Selective Inhibitors of Trypanosoma brucei Glycogen Synthase Kinase 3 for the Treatment of Human African Trypanosomiasis” (Journal of Medicinal Chemistry, 2014).

What was measured:
HsCDK2/cyclin A = HsCDK2/cyclin A (Homo sapiens, UniProt P24941); test: Radiometric Flashplate potency assay, HsCDK2/cyclin A; format: biochemical; details: ratio of IC50 values
Procedure: (§1) For compound potency determinations, a radiometric 96-well Flashplate assay (PerkinElmer) was adopted. Compounds were solubilized in DMSO at a top concentration of 3 mM and serially diluted to achieve 10-point titration of final assay concentrations from 30 μM to 0.3 nM with a final DMSO concentration of 1% (v/v). The reaction mixtures contained 1 μM biotinylated GSP2 substrate, 1 μM ATP, 3.7 KBq/well [γ-33P]-ATP and 2.5 nM TbGSK3 in the TbGSK3 kinase assay buffer. GSK3 inhibitors were screened for selectivity assessment also against HsGSK3β. For HsGSK3 assay, the reaction mixes contained 1 μM biotinylated GSP2 substrate, 2 μM ATP, 7.4 KBq/well [γ-33P]-ATP and 15 nM HsGSK3β in the TbGSK3 kinase assay buffer (25 mM Tris-HCl, pH 7.5, 10 mM MgCl2, 5 mM DTT, 0.02% CHAPS, 2 U/mL heparin). For HsCDK2/cyclin A assay, the reaction mixtures contained 1 mM CDK5 biotinylated peptide substrate (Biotin-C6-PKTPKKAKKL), 1 μM ATP, 7.4 KBq/well [γ-^33P]-ATP and 2 nM HsCDK2/cyclin A in the kinase assay buffer (50 mM Tris-HCl, pH 7.5, 10 mM MgCl2, 2 mM DTT, 100 mM NaCl, 0.2 mM EGTA, 0.02% (v/v) Brij35).
For the HsCDK2 assay, the analysis was performed using two different standards (GW8510 and staurosporine) tested respectively five times in a single run and 19 times in 2 independent runs. This implies that a difference of >0.3 in pIC50 can be considered statistically significant for this assay.

P38b MAPK = target: T1, P38b MAPK (Homo sapiens, UniProt Q15759); test: Mammalian kinase profiling (DSTT panel); format: biochemical; details: 10 μM; average percentage of remaining activity
T1 construct: purchased Division of Signal Transduction Therapy (DSTT), University of Dundee
T1 sequence (Q15759 whole entry): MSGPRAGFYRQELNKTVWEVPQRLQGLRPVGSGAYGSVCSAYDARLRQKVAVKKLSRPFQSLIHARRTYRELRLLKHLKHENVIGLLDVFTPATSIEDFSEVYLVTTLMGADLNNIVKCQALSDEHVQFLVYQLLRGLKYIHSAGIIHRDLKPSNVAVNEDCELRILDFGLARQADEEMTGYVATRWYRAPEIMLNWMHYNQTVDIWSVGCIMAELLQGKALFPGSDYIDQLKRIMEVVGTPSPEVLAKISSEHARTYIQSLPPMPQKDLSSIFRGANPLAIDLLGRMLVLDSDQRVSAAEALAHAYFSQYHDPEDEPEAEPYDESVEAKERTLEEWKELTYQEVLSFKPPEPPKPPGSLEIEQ

panel of 80 human PKs = test: Mammalian kinase profiling, whole panel (4f, 4m, 4y); format: biochemical; details: 10 μM
Procedure: To assess the selectivity of the aminopyrazole inhibitors, remaining activity at 10 μM concentration was measured for compounds 4f, 4m, and 4y against a panel of 80 human PKs and for compound 9g against 124 human PKs. […] Compound 4m inhibited only two PKs, namely GSK3β and CDK2, at more than 80%.
Selected compounds were screened against a panel of mammalian kinases routinely run by the Division of Signal Transduction Therapy (DSTT) at the University of Dundee in duplicate at 10 μM.[32] Enzymes included in the panel and assay conditions are reported in the literature. All biochemical assays are run below the Km^app for the ATP for each enzyme, allowing comparison of inhibition across the panel.

TbGSK3 short = target: T2, TbGSK3 short (Trypanosoma brucei brucei, UniProt Q388M1); test: Radiometric 96-well Flashplate potency assay, TbGSK3; format: biochemical
T2 sequence (Q388M1 1-352): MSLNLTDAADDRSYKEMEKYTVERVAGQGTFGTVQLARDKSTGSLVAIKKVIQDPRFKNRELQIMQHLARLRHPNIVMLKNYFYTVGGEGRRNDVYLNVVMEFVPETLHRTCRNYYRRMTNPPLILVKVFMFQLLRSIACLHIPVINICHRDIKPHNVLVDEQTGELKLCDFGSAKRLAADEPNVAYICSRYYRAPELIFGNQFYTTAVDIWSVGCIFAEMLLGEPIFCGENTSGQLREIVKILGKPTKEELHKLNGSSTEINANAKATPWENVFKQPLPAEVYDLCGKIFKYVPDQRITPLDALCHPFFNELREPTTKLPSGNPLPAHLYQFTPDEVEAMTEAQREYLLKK
Procedure: as §1
The statistical significance of the compound potency (IC50) was based on the performance of standard molecules which have been tested to a high replication. In the case of TbGSK3 short assay, the standard compound GW8510 was tested 93 times across 9 independent runs. […] The minimum significant ratio (MSR) of 0.4 was evaluated considering the following formula: [drawing 1] where SD is the standard deviation and N the number of replicate values routinely used for the assay (2 in our case).[31] This implies that a difference of >0.4 in pIC50 can be considered statistically significant for this assay.

CDK2 = target: T3, CDK2 (Homo sapiens, UniProt P24941); test: Mammalian kinase profiling (DSTT panel); format: biochemical
T3 construct: purchased Division of Signal Transduction Therapy (DSTT), University of Dundee

GSK3b = target: T4, GSK3b (Homo sapiens, UniProt P49841); test: Mammalian kinase profiling (DSTT panel); format: biochemical; details: read-out: inhibition of GSK3β
T4 construct: purchased Division of Signal Transduction Therapy (DSTT), University of Dundee
T4 sequence (P49841 whole entry): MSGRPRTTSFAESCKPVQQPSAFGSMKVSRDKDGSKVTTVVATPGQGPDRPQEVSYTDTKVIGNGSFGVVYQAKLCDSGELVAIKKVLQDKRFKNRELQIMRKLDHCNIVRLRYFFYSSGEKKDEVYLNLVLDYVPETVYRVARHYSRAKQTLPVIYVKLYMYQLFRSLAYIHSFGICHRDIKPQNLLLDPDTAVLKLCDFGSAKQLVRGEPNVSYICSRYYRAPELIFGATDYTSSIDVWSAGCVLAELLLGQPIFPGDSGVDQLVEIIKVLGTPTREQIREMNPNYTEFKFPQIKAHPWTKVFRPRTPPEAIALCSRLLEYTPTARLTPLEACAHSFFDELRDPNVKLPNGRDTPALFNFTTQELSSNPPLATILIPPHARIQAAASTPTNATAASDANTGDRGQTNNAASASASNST

MRC5 cells = test: MRC5 proliferation assay (resazurin); format: cell-based, human; details: T. b. brucei versus MRC5 EC50
Procedure: (§2) Measurement of inhibition of the proliferation of MRC5 (human lung fibroblast) cells and T. b. brucei bloodstream stage cells was performed using a modification of the cell viability assay previously described.[33] Compounds (50 μM to 0.5 nM) were incubated with 2 × 10^3 cells/well in 0.2 mL of the appropriate culture medium (MEM with 10% fetal bovine serum for MRC5 cells) in clear 96-well plates. Plates were incubated at 37 °C in the presence of 5% CO2 for 69 h. Resazurin was then added to a final concentration of 50 μM, and plates were incubated as above for a further 4 h before being read on a BioTek flx800 fluorescent plate reader.

[1] = system: bloodstream form T. b. brucei; test: Trypanosome proliferation assay (resazurin); format: cell-based; details: Trypanosoma brucei, 72 h, concentration required to inhibit growth in culture by 50% over 72 h
Procedure: as §2

endogenous TbGSK3 short = details: parasite cell extracts; cited from earlier work
PRK2 = target: T5, PRK2 (Homo sapiens, UniProt Q16513); test: Mammalian kinase profiling (DSTT panel); format: biochemical; details: 10 μM; average percentage of remaining activity
T5 construct: purchased Division of Signal Transduction Therapy (DSTT), University of Dundee
T5 sequence (Q16513 whole entry): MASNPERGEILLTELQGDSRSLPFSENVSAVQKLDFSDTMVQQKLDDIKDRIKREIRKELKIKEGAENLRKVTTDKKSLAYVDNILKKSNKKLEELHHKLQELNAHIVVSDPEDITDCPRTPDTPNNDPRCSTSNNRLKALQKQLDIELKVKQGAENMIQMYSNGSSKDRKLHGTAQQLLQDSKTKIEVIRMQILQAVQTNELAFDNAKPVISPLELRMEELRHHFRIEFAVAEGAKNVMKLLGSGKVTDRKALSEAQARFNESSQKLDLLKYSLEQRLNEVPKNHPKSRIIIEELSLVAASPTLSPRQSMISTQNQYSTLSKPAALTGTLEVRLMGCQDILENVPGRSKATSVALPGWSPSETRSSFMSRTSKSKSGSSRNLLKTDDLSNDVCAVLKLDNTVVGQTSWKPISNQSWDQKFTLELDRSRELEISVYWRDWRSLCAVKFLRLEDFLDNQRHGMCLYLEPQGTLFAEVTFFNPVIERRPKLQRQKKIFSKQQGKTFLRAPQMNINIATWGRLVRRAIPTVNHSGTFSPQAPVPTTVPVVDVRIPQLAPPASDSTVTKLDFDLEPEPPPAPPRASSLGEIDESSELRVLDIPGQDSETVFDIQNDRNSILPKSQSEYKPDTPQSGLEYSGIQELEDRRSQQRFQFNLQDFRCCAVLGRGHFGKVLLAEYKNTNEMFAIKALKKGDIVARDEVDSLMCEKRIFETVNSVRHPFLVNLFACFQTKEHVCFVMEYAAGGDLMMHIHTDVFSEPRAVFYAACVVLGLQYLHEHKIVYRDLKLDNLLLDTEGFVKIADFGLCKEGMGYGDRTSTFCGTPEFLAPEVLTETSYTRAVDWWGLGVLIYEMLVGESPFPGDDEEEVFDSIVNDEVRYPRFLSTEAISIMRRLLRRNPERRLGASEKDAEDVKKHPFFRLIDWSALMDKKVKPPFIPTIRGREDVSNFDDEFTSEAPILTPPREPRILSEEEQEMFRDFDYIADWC

RSK2 = target: T6, RSK2 (Homo sapiens, UniProt P51812); test: Mammalian kinase profiling (DSTT panel); format: biochemical; details: 10 μM; average percentage of remaining activity
T6 construct: purchased Division of Signal Transduction Therapy (DSTT), University of Dundee
T6 sequence (P51812 whole entry): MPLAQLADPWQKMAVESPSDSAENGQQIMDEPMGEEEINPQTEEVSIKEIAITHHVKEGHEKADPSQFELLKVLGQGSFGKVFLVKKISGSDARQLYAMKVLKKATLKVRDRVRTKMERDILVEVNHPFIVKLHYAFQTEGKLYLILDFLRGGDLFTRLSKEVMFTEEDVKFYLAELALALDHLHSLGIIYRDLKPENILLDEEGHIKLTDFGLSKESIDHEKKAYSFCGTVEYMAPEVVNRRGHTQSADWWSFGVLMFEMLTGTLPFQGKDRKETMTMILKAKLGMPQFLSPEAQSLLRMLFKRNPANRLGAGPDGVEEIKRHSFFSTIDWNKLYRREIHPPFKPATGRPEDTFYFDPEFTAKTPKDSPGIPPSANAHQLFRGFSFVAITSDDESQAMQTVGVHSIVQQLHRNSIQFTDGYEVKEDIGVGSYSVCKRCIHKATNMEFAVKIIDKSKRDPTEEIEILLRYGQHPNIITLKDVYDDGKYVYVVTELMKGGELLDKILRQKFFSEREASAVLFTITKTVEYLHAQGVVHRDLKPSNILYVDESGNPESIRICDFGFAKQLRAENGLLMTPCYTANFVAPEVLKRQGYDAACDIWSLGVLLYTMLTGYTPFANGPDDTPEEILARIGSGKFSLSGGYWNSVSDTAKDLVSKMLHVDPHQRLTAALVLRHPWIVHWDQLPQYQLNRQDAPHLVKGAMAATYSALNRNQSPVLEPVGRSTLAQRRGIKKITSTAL

PKBa = target: T7, PKBa (Homo sapiens, UniProt P31749); test: Mammalian kinase profiling (DSTT panel); format: biochemical; details: average percentage of remaining activity, read-out: PKBa activity compared to the control
T7 construct: purchased Division of Signal Transduction Therapy (DSTT), University of Dundee
T7 sequence (P31749 whole entry): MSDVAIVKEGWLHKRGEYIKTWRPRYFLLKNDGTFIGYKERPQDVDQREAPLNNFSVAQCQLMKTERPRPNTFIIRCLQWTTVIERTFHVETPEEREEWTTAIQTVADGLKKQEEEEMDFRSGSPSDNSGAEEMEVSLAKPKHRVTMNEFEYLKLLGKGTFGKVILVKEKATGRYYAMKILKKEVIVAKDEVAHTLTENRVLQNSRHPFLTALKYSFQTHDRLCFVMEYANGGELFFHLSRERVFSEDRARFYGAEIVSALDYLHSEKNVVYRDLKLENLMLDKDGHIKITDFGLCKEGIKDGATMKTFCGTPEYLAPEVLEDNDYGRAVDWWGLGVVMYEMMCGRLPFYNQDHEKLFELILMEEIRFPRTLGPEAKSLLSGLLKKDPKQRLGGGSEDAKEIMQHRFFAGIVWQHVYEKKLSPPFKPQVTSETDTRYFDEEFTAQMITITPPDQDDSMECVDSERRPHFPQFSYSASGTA

Compound: CO[C@H]1CC[C@H](NC(=O)c2n[nH]cc2NC(=O)c2ccccc2)CC1 [Compound 4f, 4-Benzamido-N-(4-methoxycyclohexyl)-1H-pyrazole-3-carboxamide]
- ratio HsCDK2/TbGSK3 (HsCDK2/cyclin A): <1.6
- P38b MAPK activity compared to the control (P38b MAPK): 74%
- number of PKs inhibited by more than 80% (panel of 80 human PKs): seven
- improvement of TbGSK3 inhibition potency (TbGSK3 short; relative to saturated six-membered rings (4a, 4b) and benzyl groups (4c, 4d, 4e), on average): ~20 fold

Compound: COc1cccc(OC)c1C(=O)Nc1c[nH]nc1C(=O)NC1CCC(OC)CC1 (centres unmarked) [Compound 4m, 4-(2,6-Dimethoxybenzamido)-N-(4-methoxycyclohexyl)-1H-pyrazole-3-carboxamide]
- inhibition at 10 µM (CDK2): > 80%
- inhibition at 10 µM (GSK3b): > 80%
- selectivity over MRC5 cells (MRC5 cells): 60 fold
- EC50 [1]: < 1000 nM
- number of PKs inhibited by more than 80% (panel of 80 human PKs): two
- TbGSK3 potency relative to 4f (TbGSK3 short; more potent than the unsubstituted phenyl compound 4f): approximately 10 fold
- affinity for endogenous TbGSK3 short (endogenous TbGSK3 short): nanomolar affinity

Compound: CO[C@H]1CC[C@H](NC(=O)c2n[nH]cc2NC(=O)c2ccc(-c3ccccc3)o2)CC1 [Compound 4y, N-(4-Methoxycyclohexyl)-4-(5-phenylfuran-2-carboxamido)-1H-pyrazole-3-carboxamide]
- PRK2 activity compared to the control (PRK2): 65%
- RSK2 activity compared to the control (RSK2): 93%
- remaining activity at 10 µM (PKBa): 86%
